{
  "source": "patent US20260007621A1",
  "about": "“Pharmaceutical Combinations for Treatment” (priority 2022, published 2026)",
  "key": {"[1]": {"test_system": "therapeutic relief of cough, cold and allergy symptoms", "test": "Inventor's findings on relief from GFN or antihistamines combined with IBF+APAP (and PE); no method given", "type": "in vivo, human", "details": "for therapeutic relief expressed as GFN amount: 'it is suggested'", "procedure": "A normal 4 hourly dosage of DM and GFN is 20 mg and 400 mg respectively."}, "[2]": {"details": "in vivo; cited from earlier work"}, "[3]": {"details": "6.25 mg PE administered with 500 mg APAP; cited from earlier work"}, "[4]": {"test_system": "recurring coughs, sneezing, headache, runny nose, pain, cold, fever, sore throat, sinus pressure", "test": "Clinical study: one subject rates relief from new pharmaceutical combinations against previous medication", "type": "in vivo, human", "details": "2.5 mg cetirizine, 5 mg bilastine, 2.5 mg loratadine or 30 mg fexofenadine, each dose after 3 hours; versus 10, 20, 10 or 120 mg once", "procedure": "The subject had recurring coughs, sneezing, headache, runny nose, pain, cold, fever, sore throat, sinus pressure etc. They took medication including DM+GFN combination as well as antihistamines to cure it, namely: • a. Mucinex Expectorant Tablets (600 mg GFN/dose): 1 dose per 12 hours; • b. […] Labixten (20 mg Bilastine/dose): 1 dose per 24 hours. […] On each recurrence of cough and other symptoms a new pharmaceutical combination was given. The subject would then provide feedback on the improvement of their symptoms and rate the performance of the pharmaceutical composition in comparison to their previous medication experience."}},
  "note": "Entries after “also recorded” stand apart in the source; their conditions may differ.",
  "data": [
    {"smiles": "COc1ccccc1OCC(O)CO", "note": "(stereo not shown) [GFN, guaifenesin]", "values": [
      {"measurement": "therapeutic relief expressed as GFN amount", "setting": "[1]; 100 mg GFN taken with 175-200 mg IBF and 275-575 mg APAP", "value": 143, "unit": "mg GFN"},
      {"measurement": "therapeutic relief expressed as GFN amount", "setting": "[1]; 200 mg GFN taken with 175-200 mg IBF and 275-575 mg APAP", "value": 286, "unit": "mg GFN"},
      {"measurement": "increase in effectiveness of GFN when combined with IBF+APAP", "setting": "[1]; in vivo", "value": "about 45%"},
      {"measurement": "GFN dose that, combined with IBF+APAP, gives the relief of a normal 4 hourly dosage of 20 mg DM and 400 mg GFN", "setting": "[1]; without DM", "value": 280, "unit": "mg"}
    ]},
    {"smiles": "CNC[C@H](O)c1cccc(O)c1", "note": "[PE, Phenylephrine]", "values": [
      {"measurement": "effectiveness compared with PSE", "setting": "[2]", "value": "not as effective as PSE"},
      {"measurement": "PE dosage of similar effect", "setting": "[3]", "value": "~10", "unit": "mg"}
    ]},
    {"smiles": "CCOCCn1c(C2CCN(CCc3ccc(C(C)(C)C(=O)O)cc3)CC2)nc2ccccc21", "note": "[bilastine]", "values": [
      {"measurement": "quarter dose administered 4 times daily versus normal full 24-hour dose of the same ingredient at once", "setting": "[4]", "value": "better effect; also recorded: performed therapeutically better"}
    ]},
    {"smiles": "O=C(O)COCCN1CCN(C(c2ccccc2)c2ccc(Cl)cc2)CC1", "note": "(stereo not shown) [cetirizine]", "values": [
      {"measurement": "quarter dose administered 4 times daily versus normal full 24-hour dose of the same ingredient at once", "setting": "[4]", "value": "better effect; also recorded: performed therapeutically better"}
    ]},
    {"smiles": "CC(C)(C(=O)O)c1ccc(C(O)CCCN2CCC(C(O)(c3ccccc3)c3ccccc3)CC2)cc1", "note": "(stereo not shown) [fexofenadine]", "values": [
      {"measurement": "quarter dose administered 4 times daily versus normal full 24-hour dose of the same ingredient at once", "setting": "[4]", "value": "better effect; also recorded: performed therapeutically better"}
    ]},
    {"smiles": "CCOC(=O)N1CCC(=C2c3ccc(Cl)cc3CCc3cccnc32)CC1", "note": "[loratadine]", "values": [
      {"measurement": "quarter dose administered 4 times daily versus normal full 24-hour dose of the same ingredient at once", "setting": "[4]", "value": "better effect; also recorded: performed therapeutically better"}
    ]}
  ]
}
